Data taken from ChEMBL document CHEMBL4308841, “Synthesis, in vitro antiproliferative activity, and kinase inhibitory effects of pyrazole-containing diarylureas and diarylamides” (Eur J Med Chem, 2018).

tested on: MCF7; assay: Growth inhibition of human MCF7 cells assessed as cell growth at 0.1 uM incubated for 48 hrs by sulforhodamine B assay relative to control; format: functional; conditions: MCF7, 48 h, read-out: Activity

SMILES	growth at 0.1 µM [%]
COc1cc(Cl)cc(-c2nn(-c3cccc(NC(=O)c4cccc(C(F)(F)F)c4)c3)cc2-c2ccncc2)c1	92
O=C(Nc1cccc(-n2cc(-c3ccncc3)c(-c3cc(O)cc(Cl)c3)n2)c1)Nc1ccc(Cl)c(C(F)(F)F)c1	91

tested on: OVCAR-4; assay: Growth inhibition of human OVCAR4 cells assessed as cell growth at 100 uM incubated for 48 hrs by sulforhodamine B assay relative to control; format: functional; conditions: OVCAR-4, 48 h, read-out: Activity

SMILES	growth at 100 µM [%]
COc1cc(Cl)cc(-c2nn(-c3cccc(NC(=O)c4cccc(C(F)(F)F)c4)c3)cc2-c2ccncc2)c1	74
O=C(Nc1cccc(-n2cc(-c3ccncc3)c(-c3cc(O)cc(Cl)c3)n2)c1)Nc1ccc(Cl)c(C(F)(F)F)c1	-10

tested on: SW-620; assay: Growth inhibition of human SW620 cells incubated for 48 hrs by sulforhodamine B assay; format: functional, cell-based; conditions: SW-620, 48 h, read-out: GI50

SMILES	GI50 [µM]
COc1cc(Cl)cc(-c2nn(-c3cccc(NC(=O)c4cccc(C(F)(F)F)c4)c3)cc2-c2ccncc2)c1	> 100
O=C(Nc1cccc(-n2cc(-c3ccncc3)c(-c3cc(O)cc(Cl)c3)n2)c1)Nc1ccc(Cl)c(C(F)(F)F)c1	3.29

same assay, conditions: SW-620, 48 h, read-out: LC50

SMILES	LC50 [µM]
COc1cc(Cl)cc(-c2nn(-c3cccc(NC(=O)c4cccc(C(F)(F)F)c4)c3)cc2-c2ccncc2)c1	> 100
O=C(Nc1cccc(-n2cc(-c3ccncc3)c(-c3cc(O)cc(Cl)c3)n2)c1)Nc1ccc(Cl)c(C(F)(F)F)c1	58

same assay, conditions: SW-620, 48 h, read-out: TGI

SMILES	TGI [µM]
COc1cc(Cl)cc(-c2nn(-c3cccc(NC(=O)c4cccc(C(F)(F)F)c4)c3)cc2-c2ccncc2)c1	> 100
O=C(Nc1cccc(-n2cc(-c3ccncc3)c(-c3cc(O)cc(Cl)c3)n2)c1)Nc1ccc(Cl)c(C(F)(F)F)c1	10.7

same assay, conditions: SW-620, 48 h, read-out: pGI50 (converted)

SMILES	GI50 [µM]
COc1cc(Cl)cc(-c2nn(-c3cccc(NC(=O)c4cccc(C(F)(F)F)c4)c3)cc2-c2ccncc2)c1	> 100
O=C(Nc1cccc(-n2cc(-c3ccncc3)c(-c3cc(O)cc(Cl)c3)n2)c1)Nc1ccc(Cl)c(C(F)(F)F)c1	3.31

same assay, conditions: SW-620, 48 h, read-out: pLC50 (converted)

SMILES	LC50 [µM]
COc1cc(Cl)cc(-c2nn(-c3cccc(NC(=O)c4cccc(C(F)(F)F)c4)c3)cc2-c2ccncc2)c1	> 100
O=C(Nc1cccc(-n2cc(-c3ccncc3)c(-c3cc(O)cc(Cl)c3)n2)c1)Nc1ccc(Cl)c(C(F)(F)F)c1	56.2

same assay, conditions: SW-620, 48 h, read-out: pTGI (converted)

SMILES	TGI [µM]
COc1cc(Cl)cc(-c2nn(-c3cccc(NC(=O)c4cccc(C(F)(F)F)c4)c3)cc2-c2ccncc2)c1	> 100
O=C(Nc1cccc(-n2cc(-c3ccncc3)c(-c3cc(O)cc(Cl)c3)n2)c1)Nc1ccc(Cl)c(C(F)(F)F)c1	10.7

tested on: NCI-H522; assay: Growth inhibition of human NCI-H522 cells assessed as cell growth at 1 uM incubated for 48 hrs by sulforhodamine B assay relative to control; format: functional; conditions: NCI-H522, 48 h, read-out: Activity

SMILES	growth at 1 µM [%]
COc1cc(Cl)cc(-c2nn(-c3cccc(NC(=O)c4cccc(C(F)(F)F)c4)c3)cc2-c2ccncc2)c1	54
O=C(Nc1cccc(-n2cc(-c3ccncc3)c(-c3cc(O)cc(Cl)c3)n2)c1)Nc1ccc(Cl)c(C(F)(F)F)c1	51

tested on: A549; assay: Growth inhibition of human A549/ATCC cells assessed as cell growth at 0.1 uM incubated for 48 hrs by sulforhodamine B assay relative to control; format: functional; conditions: A549, 48 h, read-out: Activity

SMILES	growth at 0.1 µM [%]
COc1cc(Cl)cc(-c2nn(-c3cccc(NC(=O)c4cccc(C(F)(F)F)c4)c3)cc2-c2ccncc2)c1	93
O=C(Nc1cccc(-n2cc(-c3ccncc3)c(-c3cc(O)cc(Cl)c3)n2)c1)Nc1ccc(Cl)c(C(F)(F)F)c1	100

tested on: NCI-H322M; assay: Growth inhibition of human NCI-H322M cells incubated for 48 hrs by sulforhodamine B assay; format: functional, cell-based; conditions: read-out: GI50

SMILES	GI50 [µM]
COc1cc(Cl)cc(-c2nn(-c3cccc(NC(=O)c4cccc(C(F)(F)F)c4)c3)cc2-c2ccncc2)c1	> 100
O=C(Nc1cccc(-n2cc(-c3ccncc3)c(-c3cc(O)cc(Cl)c3)n2)c1)Nc1ccc(Cl)c(C(F)(F)F)c1	3.15

same assay, conditions: read-out: LC50 (the source's name)

SMILES	CC50 [µM]
COc1cc(Cl)cc(-c2nn(-c3cccc(NC(=O)c4cccc(C(F)(F)F)c4)c3)cc2-c2ccncc2)c1	> 100
O=C(Nc1cccc(-n2cc(-c3ccncc3)c(-c3cc(O)cc(Cl)c3)n2)c1)Nc1ccc(Cl)c(C(F)(F)F)c1	95.5

same assay, conditions: read-out: TGI

SMILES	TGI [µM]
COc1cc(Cl)cc(-c2nn(-c3cccc(NC(=O)c4cccc(C(F)(F)F)c4)c3)cc2-c2ccncc2)c1	> 100
O=C(Nc1cccc(-n2cc(-c3ccncc3)c(-c3cc(O)cc(Cl)c3)n2)c1)Nc1ccc(Cl)c(C(F)(F)F)c1	13

same assay, conditions: read-out: pGI50 (converted)

SMILES	GI50 [µM]
COc1cc(Cl)cc(-c2nn(-c3cccc(NC(=O)c4cccc(C(F)(F)F)c4)c3)cc2-c2ccncc2)c1	> 100
O=C(Nc1cccc(-n2cc(-c3ccncc3)c(-c3cc(O)cc(Cl)c3)n2)c1)Nc1ccc(Cl)c(C(F)(F)F)c1	3.16

same assay, conditions: read-out: pLC50 (the source's name) (converted)

SMILES	CC50 [µM]
COc1cc(Cl)cc(-c2nn(-c3cccc(NC(=O)c4cccc(C(F)(F)F)c4)c3)cc2-c2ccncc2)c1	> 100
O=C(Nc1cccc(-n2cc(-c3ccncc3)c(-c3cc(O)cc(Cl)c3)n2)c1)Nc1ccc(Cl)c(C(F)(F)F)c1	95.5

same assay, conditions: read-out: pTGI (converted)

SMILES	TGI [µM]
COc1cc(Cl)cc(-c2nn(-c3cccc(NC(=O)c4cccc(C(F)(F)F)c4)c3)cc2-c2ccncc2)c1	> 100
O=C(Nc1cccc(-n2cc(-c3ccncc3)c(-c3cc(O)cc(Cl)c3)n2)c1)Nc1ccc(Cl)c(C(F)(F)F)c1	12.9

tested on: CAKI-1; assay: Growth inhibition of human Caki1 cells assessed as cell growth at 100 uM incubated for 48 hrs by sulforhodamine B assay relative to control; format: functional; conditions: CAKI-1, 48 h, read-out: Activity

SMILES	growth at 100 µM [%]
COc1cc(Cl)cc(-c2nn(-c3cccc(NC(=O)c4cccc(C(F)(F)F)c4)c3)cc2-c2ccncc2)c1	21
O=C(Nc1cccc(-n2cc(-c3ccncc3)c(-c3cc(O)cc(Cl)c3)n2)c1)Nc1ccc(Cl)c(C(F)(F)F)c1	-38

tested on: UO-31; assay: Growth inhibition of human UO31 cells assessed as cell growth at 0.01 uM incubated for 48 hrs by sulforhodamine B assay relative to control; format: functional; conditions: UO-31, 48 h, read-out: Activity

SMILES	growth at 0.01 µM [%]
COc1cc(Cl)cc(-c2nn(-c3cccc(NC(=O)c4cccc(C(F)(F)F)c4)c3)cc2-c2ccncc2)c1	58
O=C(Nc1cccc(-n2cc(-c3ccncc3)c(-c3cc(O)cc(Cl)c3)n2)c1)Nc1ccc(Cl)c(C(F)(F)F)c1	93

tested on: T47D; assay: Growth inhibition of human T47D cells assessed as cell growth at 100 uM incubated for 48 hrs by sulforhodamine B assay relative to control; format: functional; conditions: read-out: Activity

SMILES	growth at 100 µM [%]
COc1cc(Cl)cc(-c2nn(-c3cccc(NC(=O)c4cccc(C(F)(F)F)c4)c3)cc2-c2ccncc2)c1	15
O=C(Nc1cccc(-n2cc(-c3ccncc3)c(-c3cc(O)cc(Cl)c3)n2)c1)Nc1ccc(Cl)c(C(F)(F)F)c1	-52

tested on: Malme-3M; assay: Growth inhibition of human MALME-3M cells incubated for 48 hrs by sulforhodamine B assay; format: functional, cell-based; conditions: read-out: GI50

SMILES	GI50 [nM]
COc1cc(Cl)cc(-c2nn(-c3cccc(NC(=O)c4cccc(C(F)(F)F)c4)c3)cc2-c2ccncc2)c1	> 100000
O=C(Nc1cccc(-n2cc(-c3ccncc3)c(-c3cc(O)cc(Cl)c3)n2)c1)Nc1ccc(Cl)c(C(F)(F)F)c1	2370

same assay, conditions: read-out: LC50 (the source's name)

SMILES	CC50 [µM]
COc1cc(Cl)cc(-c2nn(-c3cccc(NC(=O)c4cccc(C(F)(F)F)c4)c3)cc2-c2ccncc2)c1	> 100
O=C(Nc1cccc(-n2cc(-c3ccncc3)c(-c3cc(O)cc(Cl)c3)n2)c1)Nc1ccc(Cl)c(C(F)(F)F)c1	24.3

same assay, conditions: read-out: TGI

SMILES	TGI [µM]
COc1cc(Cl)cc(-c2nn(-c3cccc(NC(=O)c4cccc(C(F)(F)F)c4)c3)cc2-c2ccncc2)c1	> 100
O=C(Nc1cccc(-n2cc(-c3ccncc3)c(-c3cc(O)cc(Cl)c3)n2)c1)Nc1ccc(Cl)c(C(F)(F)F)c1	62.5

same assay, conditions: read-out: pGI50 (converted)

SMILES	GI50 [nM]
COc1cc(Cl)cc(-c2nn(-c3cccc(NC(=O)c4cccc(C(F)(F)F)c4)c3)cc2-c2ccncc2)c1	> 100000
O=C(Nc1cccc(-n2cc(-c3ccncc3)c(-c3cc(O)cc(Cl)c3)n2)c1)Nc1ccc(Cl)c(C(F)(F)F)c1	2340

same assay, conditions: read-out: pLC50 (the source's name) (converted)

SMILES	CC50 [µM]
COc1cc(Cl)cc(-c2nn(-c3cccc(NC(=O)c4cccc(C(F)(F)F)c4)c3)cc2-c2ccncc2)c1	> 100
O=C(Nc1cccc(-n2cc(-c3ccncc3)c(-c3cc(O)cc(Cl)c3)n2)c1)Nc1ccc(Cl)c(C(F)(F)F)c1	24.5

same assay, conditions: read-out: pTGI (converted)

SMILES	TGI [µM]
COc1cc(Cl)cc(-c2nn(-c3cccc(NC(=O)c4cccc(C(F)(F)F)c4)c3)cc2-c2ccncc2)c1	> 100
O=C(Nc1cccc(-n2cc(-c3ccncc3)c(-c3cc(O)cc(Cl)c3)n2)c1)Nc1ccc(Cl)c(C(F)(F)F)c1	6.31

tested on: Hs-578T; assay: Growth inhibition of human Hs578T cells assessed as cell growth at 0.1 uM incubated for 48 hrs by sulforhodamine B assay relative to control; format: functional; conditions: read-out: Activity

SMILES	growth at 0.1 µM [%]
COc1cc(Cl)cc(-c2nn(-c3cccc(NC(=O)c4cccc(C(F)(F)F)c4)c3)cc2-c2ccncc2)c1	89
O=C(Nc1cccc(-n2cc(-c3ccncc3)c(-c3cc(O)cc(Cl)c3)n2)c1)Nc1ccc(Cl)c(C(F)(F)F)c1	94

tested on: NCI/ADR-RES; assay: Growth inhibition of human NCI/ADR-RES cells assessed as cell growth at 0.1 uM incubated for 48 hrs by sulforhodamine B assay relative to control; format: functional; conditions: read-out: Activity

SMILES	growth at 0.1 µM [%]
COc1cc(Cl)cc(-c2nn(-c3cccc(NC(=O)c4cccc(C(F)(F)F)c4)c3)cc2-c2ccncc2)c1	104
O=C(Nc1cccc(-n2cc(-c3ccncc3)c(-c3cc(O)cc(Cl)c3)n2)c1)Nc1ccc(Cl)c(C(F)(F)F)c1	92

tested on: CAKI-1; assay: Growth inhibition of human Caki1 cells assessed as cell growth at 0.01 uM incubated for 48 hrs by sulforhodamine B assay relative to control; format: functional; conditions: CAKI-1, 48 h, read-out: Activity

SMILES	growth at 0.01 µM [%]
COc1cc(Cl)cc(-c2nn(-c3cccc(NC(=O)c4cccc(C(F)(F)F)c4)c3)cc2-c2ccncc2)c1	95
O=C(Nc1cccc(-n2cc(-c3ccncc3)c(-c3cc(O)cc(Cl)c3)n2)c1)Nc1ccc(Cl)c(C(F)(F)F)c1	102

tested on: HOP-92; assay: Growth inhibition of human HOP92 cells assessed as cell growth at 10 uM incubated for 48 hrs by sulforhodamine B assay relative to control; format: functional; conditions: HOP-92, 48 h, read-out: Activity

SMILES	growth at 10 µM [%]
COc1cc(Cl)cc(-c2nn(-c3cccc(NC(=O)c4cc(C(F)(F)F)cc(C(F)(F)F)c4)c3)cc2-c2ccncc2)c1	46.8

tested on: MCF7; assay: Growth inhibition of human MCF7 cells assessed as cell growth at 0.01 uM incubated for 48 hrs by sulforhodamine B assay relative to control; format: functional; conditions: MCF7, 48 h, read-out: Activity

SMILES	growth at 0.01 µM [%]
COc1cc(Cl)cc(-c2nn(-c3cccc(NC(=O)c4cccc(C(F)(F)F)c4)c3)cc2-c2ccncc2)c1	93
O=C(Nc1cccc(-n2cc(-c3ccncc3)c(-c3cc(O)cc(Cl)c3)n2)c1)Nc1ccc(Cl)c(C(F)(F)F)c1	90

tested on: 786-0; assay: Growth inhibition of human 786-0 cells assessed as cell growth at 0.1 uM incubated for 48 hrs by sulforhodamine B assay relative to control; format: functional; conditions: 786-0, 48 h, read-out: Activity

SMILES	growth at 0.1 µM [%]
COc1cc(Cl)cc(-c2nn(-c3cccc(NC(=O)c4cccc(C(F)(F)F)c4)c3)cc2-c2ccncc2)c1	97
O=C(Nc1cccc(-n2cc(-c3ccncc3)c(-c3cc(O)cc(Cl)c3)n2)c1)Nc1ccc(Cl)c(C(F)(F)F)c1	95
